The text below walks through data of patent US20240109915A1, “NOVEL ACC INHIBITORS” (Pfizer Inc., priority 2022, published 2024).

Each structure is given as a SMILES string.

The target of this assay is recombinant human ACC1 (rhACC1) (Homo sapiens (Human), UniProt Q13085). As to the kind of experiment: Transcreener ADP detection FP assay, direct inhibition of rhACC1. The class given is biochemical. Conditions: Geomean IC50, n ≥ 2 unless * then n = 1; 50 μM ATP, 30 μM acetyl-CoA. The protocol: The direct inhibition of ACC1 for the compounds of the present invention was determined using preparations of recombinant human ACC1 (rhACC1) (SEQ ID NO. 1)
Two liters of SF9 cells, infected with recombinant baculovirus containing full length human ACC1 cDNA, were suspended in ice-cold lysis buffer (25 mM Tris, pH 7.5; 150 mM NaCl; 10% glycerol; 5 mM imidazole (EMD Bioscience; Gibbstown, NJ); 2 mM TCEP (BioVectra; Charlottetown, Canada); Benzonase nuclease (10000 U/100 g cell paste; Novagen; Madison, WI); EDTA-free protease inhibitor cocktail (1 tab/50 ml; Roche Diagnostics; Mannheim, Germany). Cells were lysed by 3 cycles of freeze-thaw and centrifuged at 40,000×g for 40 minutes (4° C.). Supernatant was directly loaded onto a HisTrap FF crude column (GE Healthcare; Piscataway, NJ) and eluted with an imidazole gradient up to 0.5 M over 20 column volumes (CV). ACC1-containing fractions were pooled and diluted 1:5 with 25 mM Tris, pH 7.5, 2 mM TCEP, 10% glycerol and direct loaded onto a CaptoQ (GE Healthcare) column and eluted with an NaCl gradient up to 1 M over 20 CV's. Phosphate groups were removed from purified ACC1 by incubation with lambda phosphatase (100 U/10 μM target protein; New England Biolabs; Beverly, MA) for 14 hours at 4° C.; okadaic acid was added (1 μM final concentration; Roche Diagnostics) to inhibit the phosphatase. Purified ACC1 was exchanged into 25 mM Tris, pH 7.5, 2 mM TCEP, 10% glycerol, 0.5 M NaCl by 6 hour dialysis at 4° C. Aliquots were prepared and frozen at −80° C.
Measurement of rhACC1 Inhibition rhACC1 was assayed in a Corning #3820 (Corning, Tewksbury, MA) 384-well plate using the Transcreener ADP detection FP assay kit (Bellbrook Labs, Madison, Wisconsin) using the manufacturer's recommended conditions for a 50 μM ATP reaction. The final conditions for the assay were 50 mM HEPES, pH 7.2, 10 mM MgCl2, 7.5 mM tripotassium citrate, 2 mM DTT, 0.1 mg/mL BSA, 30 μM acetyl-CoA, 50 μM ATP, and 10 mM KHCO3. Typically, a […] was run for 60 min at room temp, and 10 μl of Transcreener stop and detect buffer was added and the combination incubated at room temp for an overnight (18 hours). The data was acquired on an Envision Fluorescence reader (PerkinElmer) using a 620 excitation Cy5 FP general dual mirror, 620 excitation Cy5 FP filter, 688 emission (S) and a 688 (P) emission filter.
Take `COc1cc(C(=O)N2CCC3(CC2)CC(=O)c2nc(C(C)(C)C)sc2C3)cc(-c2ccc(C(N)=O)cc2)n1` [Example 23, 4-(4-(2-(tert-butyl)-4-oxo-4,7-dihydro-5H-spiro[benzo[d]thiazole-6,4′-piperidine]-1′-carbonyl)-6-methoxypyridin-2-yl)benzamide]: the IC50 (as a rule, the concentration that inhibits the measured activity by half) amounted to 7.2 nM.

`COc1cc(C(=O)N2CCC3(CC2)CC(=O)c2nc(C(C)(C)C)sc2C3)cc(-c2ccccc2)n1` [Example 69]: the IC50 is 16.1 nM.

For the compound `Cc1cc(C(=O)N2CCC3(CC2)CC(=O)c2nc(C(C)(C)C)sc2C3)c(O)c2ccccc12` [Example 52], the half-inhibitory concentration (IC50) amounted to 2.4 nM.

Consider `COc1cc(C(=O)N2CCC3(CC2)CC(=O)c2nc(C(C)(C)C)sc2C3)cc2c(OC)nccc12` [Example 100], for which the half-maximal inhibitory concentration (IC50) worked out at 3.1 nM.

Consider `CNc1nc2ccccc2cc1C(=O)N1CCC2(CC1)CC(=O)c1nc(C(C)(C)C)sc1C2` [Example 74], for which the IC50 stood at 189 nM.

As to `COc1ccc(C)c2[nH]c(C(=O)N3CCC4(CC3)CC(=O)c3nc(C(C)(C)C)sc3C4)cc12` [Example 56], the half-inhibitory concentration (IC50) was found to be 5.8 nM.

Consider `CCc1cnc2c(OC)cc(C(=O)N3CCC4(CC3)CC(=O)c3nc(C(C)(C)C)sc3C4)cc2c1` [Example 105], for which the half-maximal inhibitory concentration (IC50) turned out to be 33.6 nM.

As to `CCNc1ccc2ccc(C(=O)N3CCC4(CC3)CC(=O)c3nc(C(C)(C)C)sc3C4)cc2n1` [Example 32, 2-(tert-butyl)-1′-(2-(ethylamino)quinoline-7-carbonyl)-5H-spiro[benzo[d]thiazole-6,4′-piperidin]-4(7H)-one], the IC50 was 3.5 nM.

For `Cc1cc(C(=O)N2CCC3(CC2)CC(=O)c2nc(C(C)(C)C)sc2C3)c2[nH]ncc2c1Cl` [Example 34, 2-(tert-butyl)-1′-(4-chloro-5-methyl-1H-indazole-7-carbonyl)-5H-spiro[benzo[d]thiazole-6,4′-piperidin]-4(7H)-one], the IC50 was 1.3 nM.

For the compound `Cc1c[nH]c2c(C)cc(C(=O)N3CCC4(CC3)CC(=O)c3nc(C(C)(C)C)sc3C4)cc12` [Example 92], the IC50 was 2.4 nM.

For the compound `CNc1cc2ccccc2cc1C(=O)N1CCC2(CC1)CC(=O)c1nc(C(C)(C)C)sc1C2` [Example 53], the concentration for half-maximal inhibition (IC50) turned out to be 18.1 nM.

Regarding `Cc1cc(C(=O)N2CCC3(CC2)CC(=O)c2nc(C(C)(C)C)sc2C3)cc2c1ccn2C` [Example 82], the IC50 turned out to be 6.1 nM.

With `CC(C)(C)Nc1ccc2ccc(C(=O)N3CCC4(CC3)CC(=O)c3nc(C(C)(C)C)sc3C4)cc2n1` [Example 70], the IC50 was found to be 4.6 nM.

Take `COc1cc(C(=O)N2CCC3(CC2)CC(=O)c2nc(C(C)(C)C)sc2C3)cc2c1c(C)nn2C` [Example 103]: the IC50 worked out at 5.4 nM.

With `COc1ccc2ccc(C(=O)N3CCC4(CC3)CC(=O)c3nc(C(C)(C)C)sc3C4)cc2c1` [Example 58], the IC50 was found to be 7.1 nM.

As for `CCc1nn(C)c2c(OC)cc(C(=O)N3CCC4(CC3)CC(=O)c3nc(C(C)(C)C)sc3C4)cc12` [Example 108], the half-maximal inhibitory concentration (IC50) was 5.6 nM.

Consider `CCOc1cc(C(=O)N2CCC3(CC2)Cc2sc(C(C)(C)C)nc2C(O)C3)cc2c(C)nn(C)c12` (racemic) [Example 109, rac-(R)-(2-(tert-butyl)-4-hydroxy-4,7-dihydro-5H-spiro[benzo[d]thiazole-6,4′-piperidin]-1′-yl)(7-ethoxy-1,3-dimethyl-1H-indazol-5-yl)methanone], for which the IC50 stood at 23.2 nM.

As for `Cc1cc(C(=O)N2CCC3(CC2)CC(=O)c2nc(C(C)(C)C)sc2C3)cc2cccnc12` [Example 48], the half-inhibitory concentration (IC50) is 10000 nM.

As to `CC(C)(C)c1nc2c(s1)CC1(CCN(C(=O)c3ccc4ccccc4c3O)CC1)CC2=O` [Example 63], the IC50 is 19.7 nM.

As to `COc1cc(C(=O)N2CCC3(CC2)CC(=O)c2nc(C(C)(C)C)sc2C3)c2[nH]ncc2c1` [Example 75], the IC50 was determined as 17.6 nM.

Take `Cc1n[nH]c2c(C)cc(C(=O)N3CCC4(CC3)CC(=O)c3nc(C56CC(C5)C6)sc3C4)cc12` [Example 7, 2-(bicyclo[1.1.1]pentan-1-yl)-1′-(3,7-dimethyl-1H-indazole-5-carbonyl)-5H-spiro[benzo[d]thiazole-6,4′-piperidin]-4(7H)-one]: the 50% inhibitory concentration (IC50) came out at 11 nM.

On to `COc1nccc2ccc(C(=O)N3CCC4(CC3)CC(=O)c3nc(C(C)(C)C)sc3C4)cc12` [Example 46], for which the IC50 is 85.9 nM.

Regarding `COc1cc(C(=O)N2CCC3(CC2)CC(=O)c2nc(C(C)(C)C)sc2C3)cc2c(C)nccc12` [Example 28, 2-(tert-butyl)-1′-(5-methoxy-1-methylisoquinoline-7-carbonyl)-5H-spiro[benzo[d]thiazole-6,4′-piperidin]-4(7H)-one], the concentration for half-maximal inhibition (IC50) is 6.2 nM.

Take `Cc1cn(C)c2c(C)cc(C(=O)N3CCC4(CC3)CC(=O)c3nc(C(C)(C)C)sc3C4)cc12` [Example 87]: the IC50 is 6.2 nM.

With `CC(C)(C)c1nc2c(s1)CC1(CCN(C(=O)c3ccc4nccc(O)c4c3)CC1)CC2=O` [Example 72], the IC50 was 10000 nM.

Turning to `Cc1cc(C(=O)N2CCC3(CC2)CC(=O)c2nc(C(C)(C)C)sc2C3)c2[nH]ncc2c1C` [Example 35, 2-(tert-butyl)-1′-(4,5-dimethyl-1H-indazole-7-carbonyl)-5H-spiro[benzo[d]thiazole-6,4′-piperidin]-4(7H)-one], the IC50 is 2.6 nM.

Regarding `Cc1cc(C(=O)N2CCC3(CC2)CC(=O)c2nc(C(C)(C)C)sc2C3)cc2c1NCCC2` [Example 93], the IC50 was found to be 19.5 nM.

With `CCc1n[nH]c2c(OC)cc(C(=O)N3CCC4(CC3)CC(=O)c3nc(C(C)(C)C)sc3C4)cc12` [Example 107], the IC50 came out at 12.3 nM.

For the compound `CCOc1cnc2c(C)cc(C(=O)N3CCC4(CC3)CC(=O)c3nc(C(C)(C)C)sc3C4)cc2c1` [Example 20, 2-(tert-butyl)-1′-(3-ethoxy-8-methylquinoline-6-carbonyl)-5H-spiro[benzo[d]thiazole-6,4′-piperidin]-4(7H)-one], the concentration for half-maximal inhibition (IC50) stood at 30.1 nM.

For `COc1cc(C(=O)N2CCC3(CC2)CC(=O)c2nc(C(C)(C)C)sc2C3)cc2c(OC)cncc12` [Example 43, 2-(tert-butyl)-1′-(4,8-dimethoxyisoquinoline-6-carbonyl)-5H-spiro[benzo[d]thiazole-6,4′-piperidin]-4(7H)-one], the IC50 was found to be 5.2 nM.

Consider `CNc1nccc2c(C)cc(C(=O)N3CCC4(CC3)CC(=O)c3nc(C(C)(C)C)sc3C4)cc12` [Example 24, 2-(tert-butyl)-1′-(5-methyl-1-(methylamino)isoquinoline-7-carbonyl)-5H-spiro[benzo[d]thiazole-6,4′-piperidin]-4(7H)-one], for which the half-inhibitory concentration (IC50) came out at 3.1 nM.

As for `CC(C)(C)c1nc2c(s1)CC1(CCN(C(=O)c3ccc4ccc(NC5CCC5)nc4c3)CC1)CC2=O` [Example 31, 2-(tert-butyl)-1′-(2-(cyclobutylamino)quinoline-7-carbonyl)-5H-spiro[benzo[d]thiazole-6,4′-piperidin]-4(7H)-one], the IC50 worked out at 4 nM.

As for `Cc1ccnc2c(C)cc(C(=O)N3CCC4(CC3)CC(=O)c3nc(C(C)(C)C)sc3C4)cc12` [Example 96], the IC50 amounted to 26.1 nM.

On to `[2H]C([2H])([2H])C(c1nc2c(s1)CC1(CCN(C(=O)c3cc(OC)c4c(c3)c(C)nn4C)CC1)CC2=O)(C([2H])([2H])[2H])C([2H])([2H])[2H]` [Example 12, 1′-(7-methoxy-1,3-dimethyl-1H-indazole-5-carbonyl)-2-(2-(methyl-d3)propan-2-yl-1,1,1,3,3,3-d6)-5H-spiro[benzo[d]thiazole-6,4′-piperidin]-4(7H)-one], for which the IC50 came to 5.2 nM.

With `CNc1cc(C(=O)N2CCC3(CC2)CC(=O)c2nc(C(C)(C)C)sc2C3)cc(-c2ccccc2)n1` [Example 71], the IC50 was determined as 13.6 nM.

For the compound `COc1cc(C(=O)N2CCC3(CC2)CC(=O)c2nc(C(C)(C)C)sc2C3)nc2c(OC)cccc12` [Example 86], the IC50 came out at 14.3 nM.

In the case of `COc1cc(C(=O)N2CCC3(CC2)CC(=O)c2nc(C(C)(C)C)sc2C3)cc2cc(C3CC3)cnc12` [Example 104], the IC50 is 6.7 nM.

For `CNc1nc2ccc(OC)cc2cc1C(=O)N1CCC2(CC1)CC(=O)c1nc(C(C)(C)C)sc1C2` [Example 77], the IC50 is 9.4 nM.

Consider `CC(C)(C)c1nc2c(s1)CC1(CCN(C(=O)c3ccc4[nH]cc(Cl)c4c3)CC1)CC2=O` [Example 65], for which the 50% inhibitory concentration (IC50) came to 13 nM.

For `CC(C)(C)c1nc2c(s1)CC1(CCN(C(=O)c3ccc(Cl)c4[nH]ccc34)CC1)CC2=O` [Example 88], the half-inhibitory concentration (IC50) was 15 nM.

Regarding `Cc1c(O)c(C(=O)N2CCC3(CC2)CC(=O)c2nc(C(C)(C)C)sc2C3)cc2ccccc12` [Example 85], the 50% inhibitory concentration (IC50) is 7 nM.
